Tests used:
PTEN mRNA [1] = assay: PTEN mRNA levels in liver, real-time PCR (Example 14 in vivo study); design: species or system mice; conditions: for PTEN mRNA levels (% inhibition): liver, 72 h; for ED50: estimated, Graphpad Prism, dose at which 50% mRNA reduction is observed
Experimental: (§1) Six week old male Balb/c mice (Jackson Laboratory, Bar Harbor, Me.) were administered a single intraperitoneal (i.p) injection with 4′-CH2—O-2′ BNA containing oligomers (392745 and 392063) and 6(S)-4′-CH(CH3)—O-2′ BNA containing oligomers (392749 and 411847) at a does of 3.2, 10, 32, 66 and 100 mg/kg. Oligomers 392063 and 411847 contain LNA nucleosides with methylated pyrimidines, and oligomers 392745 and 392749 contain LNA nucleosides with non-methylated pyrimidines in the wings. All intemucleoside linkages are phosphorothioates, nucleosides not followed by a subscript are βD-2′-deoxyribonucleosides, nucleosides followed by a subscript 1 are 4′-CH2—O-2′ modified bicyclic nucleosides, nucleosides followed by a subscript S are 6(S)-4′-CH(CH3)—O-2′ modified bicyclic nucleosides wherein S indicates the configuration at the 6 carbon atom and ^MeC indicates a 5′-methyl cytosine nucleoside.
(§2) Each dose group consisted of four animals. The mice were sacrificed 72 hours following the final administration to determine the PTEN mRNA levels in liver using real-time PCR and RIBOGREEN® RNA quantification reagent (Molecular Probes, Inc. Eugene, Oreg.) according to standard protocols. PTEN mRNA levels were determined relative to total RNA (using Ribogreen), prior to normalization to saline-treated control. Results are listed below as the average % inhibition of mRNA expression for each treatment group, normalized to saline-injected control.
Estimated ED50 concentrations for each oligomers were calculated using Graphpad Prism. ED50 is the dose at which 50% mRNA reducation is observed.

PTEN mRNA [2] = assay: PTEN mRNA levels in liver, real-time PCR (Example 13 in vivo study); conditions: Balb/c mice, 72 h, normalized to saline control
Experimental: (§3) In accordance with the present invention, oligomeric compounds were synthesized and tested for their ability to reduce PTEN expression in vivo at doses of 20 and 60 mg/kg. Six week old male Balb/c mice (Jackson Laboratory, Bar Harbor, Me.) were administered a single intraperitoneal (i.p) injection at either 20 or 60 mg/kg of 4′-CH2—O-2′ BNA 2-10-2 gapped oligomers ([…] and 392745). The 4′-CH2—O-2′ BNA gapped oligomer, 392745, contains non-methylated pyrimidine in the wings. The 4′-CH2—O-2′ BNA gapped oligomer, 392063, contains methylated pyrimidine in the wings (i.e. each cytosine residues in the 4′-CH2—O-2′ BNA wings of 392745 are replaced with 5-methylcytosines, while the thymidine residues in the 4′-CH2—O-2′ BNA wings of 392745 are replaced with 5-methyl thymidines). All internucleoside linkages are phosphorothioates, nucleosides not followed by a subscript are βD-2′-deoxyribonucleosides, nucleosides followed by a subscript 1 are 4′-CH2—O-2′ modified bicyclic nucleosides and ^MeC indicates a 5′-methyl cytosine nucleoside.
as §2, with “saline-injected control. Resulting dose-response curves were used to determine the IC50. Tm's were assessed in 100 mM phosphate buffer, 0.1 mM EDTA, pH 7, at 260 nm using 4 μM modified oligomers and 4 μM complementary RNA.” for “saline-injected control.”

[3] = Liver, kidney, spleen weights and body weight gain (Example 13); type: in vivo, mice; conditions: for Kidney weight / Liver weight / Spleen weight: saline = 1.00; for Body weight gain: saline = 1.05; for liver, kidney, spleen weights or body weight gain compared to saline: normal mice, 20 and 60 mg/kg
Experimental: as §3
The effects on liver, kidney, spleen weights and body weight gain were also determined.

[4] = Liver transaminase (ALT) levels in serum (Example 14); type: in vivo, mice
Experimental: as §1
(§4) Liver transaminase levels, alanine aminotranferease (ALT) and aspartate aminotransferase (AST), in serum were also measured relative to saline injected mice. Increases in the transaminase levels can indicate hepatotoxicity. The approximate liver transaminase levels are listed below.

[5] = Liver transaminase levels (ALT, AST) in serum (Example 13); type: in vivo, mice; conditions: for transaminase levels with respect to saline treated control: 20 mg/kg; for ALT / AST: serum; for ALT: saline = 24; for AST: saline = 68
Experimental: as §3
as §4, with “hepatotoxicity. […] The ALT and AST levels measured for mice treated with 60 mg/kg does of 392745 were decreased about 4.5-fold and 3 fold as compared to 392063 treatment.” for “hepatotoxicity.”

complementary RNA = assay: Tm of modified oligomers with complementary RNA; type: binding; conditions: 100 mM phosphate buffer, 0.1 mM EDTA, pH 7, 260 nm, 4 μM oligomer and 4 μM complementary RNA
Experimental: as §2, with “saline-injected control. Resulting dose-response curves were used to determine the IC50. Tm's were assessed in 100 mM phosphate buffer, 0.1 mM EDTA, pH 7, at 260 nm using 4 μM modified oligomers and 4 μM complementary RNA.” for “saline-injected control.”

Question: With C1U1TAGCACTGGCC1U1 [ISIS 392745] as the substance, how does the “PTEN mRNA levels (% inhibition)” value (PTEN mRNA [1]; 3.2 mg/kg single i.p.) read?
Answer: 0%

Question: And the “PTEN mRNA levels (% inhibition)” value (PTEN mRNA [1]; 10 mg/kg single i.p.)?
Answer: 58%

Question: What about the “PTEN mRNA levels (% inhibition)” value (PTEN mRNA [1]; 32 mg/kg single i.p.) of the same substance?
Answer: 90%

Question: And the “PTEN mRNA levels (% inhibition)” value (PTEN mRNA [1]; 66 mg/kg single i.p.)?
Answer: 90%

Question: And the “PTEN mRNA levels (% inhibition)” value (PTEN mRNA [1]; 100 mg/kg single i.p.)?
Answer: 93%

Question: What about the ED50 (PTEN mRNA [1]) of the same substance?
Answer: 9 mg/kg

Question: And the “% inhibition (PTEN mRNA expression in liver)” value (PTEN mRNA [2]; 20 mg/kg single i.p.)?
Answer: 89%

Question: What about the “% inhibition (PTEN mRNA expression in liver)” value (PTEN mRNA [2]; 60 mg/kg single i.p.) of the same substance?
Answer: 92%

Question: What about the Kidney weight ([3]; 20 mg/kg) of the same substance?
Answer: 1.02

Question: What about the Liver weight ([3]; 20 mg/kg) of the same substance?
Answer: 1.22

Question: What about the Spleen weight ([3]; 20 mg/kg) of the same substance?
Answer: 1.14

Question: What about the Body weight gain ([3]; 20 mg/kg) of the same substance?
Answer: 1.06

Question: What about the Kidney weight ([3]; 60 mg/kg) of the same substance?
Answer: 1.02

Question: What about the Liver weight ([3]; 60 mg/kg) of the same substance?
Answer: 1.25

Question: And the Spleen weight ([3]; 60 mg/kg)?
Answer: 1.12

Question: What about the Body weight gain ([3]; 60 mg/kg) of the same substance?
Answer: 1.01

Question: What about the “liver, kidney, spleen weights or body weight gain compared to saline” value [3] of the same substance?
Answer: did not substantially alter

Question: And the ALT levels ([4]; 3.2 mg/kg, serum, saline = 24)?
Answer: 30 IU/L

Question: And the ALT levels ([4]; 10 mg/kg, serum, saline = 24)?
Answer: 20 IU/L

Question: And the ALT levels ([4]; 32 mg/kg, serum, saline = 24)?
Answer: 13 IU/L

Question: What about the ALT levels ([4]; 66 mg/kg, serum, saline = 24) of the same substance?
Answer: 59 IU/L

Question: What about the “ALT level decrease as compared to 392063 treatment” value ([4]; 100 mg/kg) of the same substance?
Answer: about 3.5 fold

Question: And the ALT levels ([4]; 100 mg/kg, serum, saline = 24)?
Answer: 3842 IU/L

Question: And the “ALT levels with respect to saline treated control” value ([4]; lower doses (3.2, 10, 32 and 66 mg/kg))?
Answer: not elevated to a level indicative of hepatotoxicity

Question: What about the “transaminase levels with respect to saline treated control” value [5] of the same substance?
Answer: not elevated to a level indicative of hepatotoxicity

Question: And the ALT ([5]; 20 mg/kg single i.p.)?
Answer: 29 IU/L

Question: What about the AST ([5]; 20 mg/kg single i.p.) of the same substance?
Answer: 81 IU/L

Question: What about the “ALT level decrease as compared to 392063 treatment” value ([5]; 60 mg/kg) of the same substance?
Answer: about 4.5 fold

Question: What about the “AST level decrease as compared to 392063 treatment” value ([5]; 60 mg/kg) of the same substance?
Answer: ~3 fold

Question: And the ALT ([5]; 60 mg/kg single i.p.)?
Answer: 108 IU/L

Question: And the AST ([5]; 60 mg/kg single i.p.)?
Answer: 202 IU/L

Question: And the Tm (complementary RNA)?
Answer: 58.6 °C

Question: For ^MeC1T1TAGCACTGGC^MeC1T1 [ISIS 392063], which “PTEN mRNA levels (% inhibition)” value (PTEN mRNA [1]; 3.2 mg/kg single i.p.) is on record?
Answer: 0%

Question: And the “PTEN mRNA levels (% inhibition)” value (PTEN mRNA [1]; 10 mg/kg single i.p.)?
Answer: 68%

Question: And the “PTEN mRNA levels (% inhibition)” value (PTEN mRNA [1]; 32 mg/kg single i.p.)?
Answer: 88%

Question: What about the “PTEN mRNA levels (% inhibition)” value (PTEN mRNA [1]; 66 mg/kg single i.p.) of the same substance?
Answer: 90%

Question: What about the “PTEN mRNA levels (% inhibition)” value (PTEN mRNA [1]; 100 mg/kg single i.p.) of the same substance?
Answer: 91%

Question: What about the ED50 (PTEN mRNA [1]) of the same substance?
Answer: 8 mg/kg

Question: And the “% inhibition (PTEN mRNA expression in liver)” value (PTEN mRNA [2]; 20 mg/kg single i.p.)?
Answer: 86%

Question: What about the “% inhibition (PTEN mRNA expression in liver)” value (PTEN mRNA [2]; 60 mg/kg single i.p.) of the same substance?
Answer: 92%

Question: And the Kidney weight ([3]; 20 mg/kg)?
Answer: 1.02

Question: And the Liver weight ([3]; 20 mg/kg)?
Answer: 1.22

Question: And the Spleen weight ([3]; 20 mg/kg)?
Answer: 0.99

Question: What about the Body weight gain ([3]; 20 mg/kg) of the same substance?
Answer: 1.05

Question: And the Kidney weight ([3]; 60 mg/kg)?
Answer: 1.00

Question: What about the Liver weight ([3]; 60 mg/kg) of the same substance?
Answer: 1.29

Question: And the Spleen weight ([3]; 60 mg/kg)?
Answer: 1.11

Question: What about the Body weight gain ([3]; 60 mg/kg) of the same substance?
Answer: 0.99

Question: And the “liver, kidney, spleen weights or body weight gain compared to saline” value [3]?
Answer: did not substantially alter

Question: And the ALT levels ([4]; 3.2 mg/kg, serum, saline = 24)?
Answer: 20 IU/L

Question: And the ALT levels ([4]; 10 mg/kg, serum, saline = 24)?
Answer: 17 IU/L

Question: And the ALT levels ([4]; 32 mg/kg, serum, saline = 24)?
Answer: 20 IU/L

Question: And the ALT levels ([4]; 66 mg/kg, serum, saline = 24)?
Answer: 4292 IU/L

Question: And the ALT levels ([4]; 100 mg/kg, serum, saline = 24)?
Answer: 13811 IU/L

Question: What about the “ALT levels” value ([4]; higher doses (66 mg/kg and 100 mg/kg)) of the same substance?
Answer: substantially increased

Question: And the “transaminase levels with respect to saline treated control” value [5]?
Answer: not elevated to a level indicative of hepatotoxicity

Question: And the ALT ([5]; 20 mg/kg single i.p.)?
Answer: 28 IU/L

Question: What about the AST ([5]; 20 mg/kg single i.p.) of the same substance?
Answer: 56 IU/L

Question: What about the “ALT and AST levels” value ([5]; 60 mg/kg) of the same substance?
Answer: substantially increased

Question: And the ALT ([5]; 60 mg/kg single i.p.)?
Answer: 489 IU/L

Question: And the AST ([5]; 60 mg/kg single i.p.)?
Answer: 598 IU/L

Question: And the Tm (complementary RNA)?
Answer: 60.5 °C
